Target: T1, PIP4K2C (Homo sapiens, UniProt Q8TBX8)
T1 sequence (Q8TBX8 1-421): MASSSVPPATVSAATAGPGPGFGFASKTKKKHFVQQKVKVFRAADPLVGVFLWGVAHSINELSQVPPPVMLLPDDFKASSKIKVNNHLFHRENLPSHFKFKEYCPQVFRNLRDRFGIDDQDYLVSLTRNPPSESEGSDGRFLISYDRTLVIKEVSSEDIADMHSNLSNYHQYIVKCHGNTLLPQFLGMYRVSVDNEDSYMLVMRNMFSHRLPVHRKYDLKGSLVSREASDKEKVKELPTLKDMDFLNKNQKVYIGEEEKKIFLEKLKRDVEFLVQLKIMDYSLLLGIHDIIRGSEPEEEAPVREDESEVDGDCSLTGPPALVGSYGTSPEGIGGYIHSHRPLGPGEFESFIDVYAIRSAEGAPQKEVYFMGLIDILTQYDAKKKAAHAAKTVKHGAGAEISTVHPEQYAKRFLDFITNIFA
Experiment: HiBiT PIP4K2C degradation assay in MOLT-4 cells (endogenous PIP4K2C C-terminally tagged with HiBiT)
Format: cell-based
Set-up: untagged in primary human PBMCs and monocyte-derived dendritic cells
Conditions: 6 hours of incubation time, rather than 24 hours; MOLT-4, top concentration 10 micromolar; read-out: HiBIT-degradation MOLT4 PIP4k2C DC50 (6 hours, marked *)
Outline: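 Cells are plated onto compound dilutions (10 points, 3-fold, top 10 micromolar) and incubated 24 or 6 hours at 37 C. Lytic HiBiT detection then quantifies tagged endogenous PIP4K2C in MOLT-4, and a Hill fit yields DC50.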

SMILES | DC50 [nM]
Cn1nc(N2CCC(=O)NC2=O)c2ccc(C3CCN(CC4(O)CCN(C(=O)O[C@H]5CC[C@H](Nc6ncc(F)c(-c7cccc(-c8ccccc8)c7)n6)CC5)CC4)CC3)cc21 [Compound 635, trans-4-((4-([1,1′-biphenyl]-3-yl)-5-fluoropyrimidin-2-yl)amino)cyclohexyl 4-((4-(3-(2,4-dioxotetrahydropyrimidin-1 (2H)-yl)-1-methyl-1H-indazol-6-yl)piperidin-1-yl)methyl)-4-hydroxypiperidine-1-carboxylate] | < 500
Cn1nc(N2CCC(=O)NC2=O)c2ccc(C3CCN(CC4CCN(C(=O)O[C@H]5CC[C@H](Nc6ncc(F)c(-c7cccc(-c8ccccc8)c7)n6)CC5)CC4)CC3)cc21 [Compound 636, trans-4-((4-([1,1′-biphenyl]-3-yl)-5-fluoropyrimidin-2-yl)amino)cyclohexyl 4-((4-(3-(2,4-dioxotetrahydropyrimidin-1 (2H)-yl)-1-methyl-1H-indazol-6-yl)piperidin-1-yl)methyl)piperidine-1-carboxylate] | < 500
O=C1CCC(Nc2ccc(N3CCC(N4CC5(CC(OC(=O)N6CCC(Nc7ncc(F)c(-c8cccc(-n9ccccc9=O)c8)n7)CC6)C5)C4)CC3)c(F)c2)C(=O)N1 (centres unmarked) [Compound 637, 2-(1-(4-((2,6-dioxopiperidin-3-yl)amino)-2-fluorophenyl)piperidin-4-yl)-2-azaspiro[3.3]heptan-6-yl 4-((5-fluoro-4-(3-(2-oxopyridin-1 (2H)-yl)phenyl)pyrimidin-2-yl)amino)piperidine-1-carboxylate] | < 500
Cn1nc(C2CCC(=O)NC2=O)c2ccc(N3CCN(CC4CCN(C(=O)O[C@H]5CC[C@H](Nc6ncc(F)c(-c7cccc(-c8ccccc8)c7)n6)CC5)CC4)CC3)cc21 (stereo partly drawn) [Compound 643, trans-4-((4-([1,1′-biphenyl]-3-yl)-5-fluoropyrimidin-2-yl)amino)cyclohexyl 4-((4-(3-(2,6-dioxopiperidin-3-yl)-1-methyl-1H-indazol-6-yl)piperazin-1-yl)methyl)piperidine-1-carboxylate] | < 500
O=C1CCC(Nc2ccc(C3CCN(C[C@H]4CC[C@H](COC(=O)N5CCC(Nc6ncc(F)c(-c7cccc(-n8ccccc8=O)c7)n6)CC5)CC4)CC3)c(F)c2)C(=O)N1 (stereo partly drawn) [Compound 644, trans-(4-((4-(4-((2,6-dioxopiperidin-3-yl)amino)-2-fluorophenyl)piperidin-1-yl)methyl)cyclohexyl)methyl 4-((5-fluoro-4-(3-(2-oxopyridin-1 (2H)-yl)phenyl)pyrimidin-2-yl)amino)piperidine-1-carboxylate] | < 500
Cn1nc(C2CCC(=O)NC2=O)c2ccc(C3CCN(CC4(O)CCN(C(=O)O[C@H]5CC[C@H](Nc6ncc(F)c(-c7cccc(-c8ccccc8)c7)n6)CC5)CC4)CC3)cc21 (stereo partly drawn) [Compound 646, trans-4-((4-([1,1′-biphenyl]-3-yl)-5-fluoropyrimidin-2-yl)amino)cyclohexyl 4-((4-(3-(2,6-dioxopiperidin-3-yl)-1-methyl-1H-indazol-6-yl)piperidin-1-yl)methyl)-4-hydroxypiperidine-1-carboxylate] | < 500
Cn1nc(C2CCC(=O)NC2=O)c2ccc(C3CCN(CC4CCN(C(=O)O[C@H]5CC[C@H](Nc6ncc(F)c(-c7cccc(-c8ccccc8)c7)n6)CC5)CC4)CC3)cc21 (stereo partly drawn) [Compound 647, trans-4-((4-([1,1′-biphenyl]-3-yl)-5-fluoropyrimidin-2-yl)amino)cyclohexyl 4-((4-(3-(2,6-dioxopiperidin-3-yl)-1-methyl-1H-indazol-6-yl)piperidin-1-yl)methyl)piperidine-1-carboxylate] | < 500

Continued, values first:

DC50 [nM] | SMILES
< 500 | O=C1CCC(Nc2ccc(N3CCN([C@H]4CC[C@H](C(=O)N[C@H]5CC[C@H](Nc6ncc(Cl)c(-c7cccc(-n8ccccc8=O)c7)n6)CC5)CC4)CC3)c(F)c2)C(=O)N1 (stereo partly drawn) [Compound 632, trans-(1r,4R)—N-((1r,4R)-4-((5-chloro-4-(3-(2-oxopyridin-1 (2H)-yl)phenyl)pyrimidin-2-yl)amino)cyclohexyl)-4-(4-(4-((2,6-dioxopiperidin-3-yl)amino)-2-fluorophenyl)piperazin-1-yl)cyclohexane-1-carboxamide]
< 500 | O=C1CCC(Nc2ccc(C3CCN(C4CC5(CC(OC(=O)N6CCC(Nc7ncc(F)c(-c8cccc(-n9ccccc9=O)c8)n7)CC6)C5)C4)CC3)c(F)c2)C(=O)N1 (centres unmarked) [Compound 633, 6-(4-(4-((2,6-dioxopiperidin-3-yl)amino)-2-fluorophenyl)piperidin-1-yl)spiro[3.3]heptan-2-yl 4-((5-fluoro-4-(3-(2-oxopyridin-1 (2H)-yl)phenyl)pyrimidin-2-yl)amino)piperidine-1-carboxylate]
< 500 | O=C1CCC(Nc2ccc(C3CCN(C[C@H]4CC[C@H](COC(=O)N5CCC(Nc6ncc(F)c(-c7cccc(-c8ccccc8)c7)n6)CC5)CC4)CC3)c(F)c2)C(=O)N1 (stereo partly drawn) [Compound 640, trans-(4-((4-(4-((2,6-dioxopiperidin-3-yl)amino)-2-fluorophenyl)piperidin-1-yl)methyl)cyclohexyl)methyl 4-((4-([1,1′-biphenyl]-3-yl)-5-fluoropyrimidin-2-yl)amino)piperidine-1-carboxylate]
< 500 | O=C1CCC(Nc2ccc(N3CCC(N4CCC(C(=O)N[C@H]5CC[C@H](Nc6ncc(F)c(-c7cccc(N8CCOCC8)c7)n6)CC5)CC4)CC3)c(F)c2)C(=O)N1 (stereo partly drawn) [Compound 645, trans-1′-(4-((2,6-dioxopiperidin-3-yl)amino)-2-fluorophenyl)-N-(4-((5-fluoro-4-(3-morpholinophenyl)pyrimidin-2-yl)amino)cyclohexyl)-[1,4′-bipiperidine]-4-carboxamide]

Same assay, conditions: read-out: HiBIT-degradation MOLT4 PIP4k2C DC50 (6 hours, marked *); 6 hours of incubation time, rather than 24 hours; MOLT-4, top concentration 10 micromolar

DC50 [nM] | SMILES
< 500 | Cn1nc(N2CCC(=O)NC2=O)c2ccc(N3CCN(CC4CCN(C(=O)O[C@H]5CC[C@H](Nc6ncc(F)c(-c7cccc(-c8ccccc8)c7)n6)CC5)CC4)CC3)cc21 [Compound 634, trans-4-((4-([1,1′-biphenyl]-3-yl)-5-fluoropyrimidin-2-yl)amino)cyclohexyl 4-((4-(3-(2,4-dioxotetrahydropyrimidin-1 (2H)-yl)-1-methyl-1H-indazol-6-yl)piperazin-1-yl)methyl)piperidine-1-carboxylate]
< 500 | O=C1CCC(Nc2ccc(C3CCN(CCC4(O)CCN(C(=O)O[C@H]5CC[C@H](Nc6ncc(F)c(-c7cccc(-n8ccccc8=O)c7)n6)CC5)CC4)CC3)c(F)c2)C(=O)N1 (stereo partly drawn) [Compound 641, trans-4-((5-fluoro-4-(3-(2-oxopyridin-1 (2H)-yl)phenyl)pyrimidin-2-yl)amino)cyclohexyl 4-(2-(4-(4-((2,6-dioxopiperidin-3-yl)amino)-2-fluorophenyl)piperidin-1-yl)ethyl)-4-hydroxypiperidine-1-carboxylate]
< 500 | Cn1nc(C2CCC(=O)NC2=O)c2ccc(N3CCN(CC4(O)CCN(C(=O)O[C@H]5CC[C@H](Nc6ncc(F)c(-c7cccc(-c8ccccc8)c7)n6)CC5)CC4)CC3)cc21 (stereo partly drawn) [Compound 642, trans-4-((4-([1,1′-biphenyl]-3-yl)-5-fluoropyrimidin-2-yl)amino)cyclohexyl 4-((4-(3-(2,6-dioxopiperidin-3-yl)-1-methyl-1H-indazol-6-yl)piperazin-1-yl)methyl)-4-hydroxypiperidine-1-carboxylate]

From patent US20260355196A1, “INHIBITORS AND DEGRADERS OF PIP4K PROTEIN” (Larkspur Biosciences, Inc., priority 2023, published 2026)
